Laboratory results as given in patent US11319313B2, “Crystalline forms of deuterium-enriched pioglitazone” (Poxel SA, priority 2020, dated 2022).
Marks after values point to notes of the source that are not given here.

Legend:
[1] = Dog pharmacokinetic (PK) study, single oral administration; format: in vivo, Beagle dogs
Experimental: The 3 Beagle male dogs were fasted before dosing. Then all test drugs were administered by the oral route using API in a capsule. [table] Food was given no sooner than one hour after dose administration on the days of treatment. Each administration was separated by a wash-out period of at least 2 days. […] Predose (just before dosing) and then […] after dosing.

[2] = 13-week dog toxicology study, toxicokinetics on day 91; conditions: for AUC0-24, ss dose normalized, total pioglitazone: Day 91, 5 mg/kg/day; for AUC0-24,ss, total pioglitazone: Day 91, oral capsule 5 mg/kg/day
[3] = Phase Ia single-dose PK study in healthy human subjects; format: in vivo; conditions: single oral dose 22.5 mg capsule
Experimental: PXL065, orally administered.
(§1) Actos®, orally administered. Dose=1×45 mg, tablet.

[4] = Phase Ib repeated-dose PK study in healthy human subjects; format: in vivo; conditions: for AUC0-24,ss, total pioglitazone / AUC0-24, ss dose normalized, total pioglitazone: steady state; for AUC0-24,ss, total pioglitazone: fasting
Experimental: Subjects were screened within 28 days before their first dose of study medication. They stayed in the clinic from 1 day before dosing (Day −1) until at least 48 hours after their final dose of trial medication (Day 11).
Each dose group was composed of 4 males and 4 females in a 3:1 active/placebo ratio. • One (1) Actos® group: 6 subjects (3 males and 3 females) were given Actos®. Placebo was not given to any subjects in this group.
Subjects received a single oral dose of study drug (7.5, 15, or 30 mg tablets of PXL065 or matching placebo tablets, or 45 mg Actos® tablets), under fasting conditions on Day 1. […] All study drugs were dosed in fasting conditions.
The PXL065 PK parameters of the three single oral doses on Day 1 and after seven daily administrations on Day 9 were compared to the Actos® PK parameters on Day 1 and after seven daily administrations on Day 9.
PXL065, orally administered. Dose=1×7.5 mg tablet, 1×15 mg tablet, or 1×30 mg tablet.
as §1
One single oral administration of PXL065 or matching placebo or Actos® was given on Day 1 in fasting conditions followed by once daily multiple oral administrations of PXL065 or matching placebo or Actos® from Day 3 to Day 9 (7 days) in fasting conditions.
Pharmacokinetics: Plasma samples were analyzed using a validated assay. The samples from all evaluable subjects were analyzed. Samples from subjects who experienced emesis within 4 hours of dosing were not analyzed.
Plasma PK parameters included, but were not limited to: • Following single dose on Day 1 and Day 3 (for PXL065 groups): tmax, tlag, Cmax, AUC0-last, AUC0-24, AUC0-inf, λz, t1/2, % AUCext, CL/F, Vz/F, Cmax/Dose, AUC0-last/Dose, AUC0-inf/Dose and MRT each calculated using compartmental or non-compartmental methods as appropriate for the deuterated and protonated (R)- and (S)-enantiomers of pioglitazone. • Day 4 to Day 9: Ctrough for the deuterated and protonated (R)- and (S)-enantiomers of pioglitazone; and • Following repeated doses on Day 9: tmax, Cmax, Cavg, tlag, AUC0-last, AUC0-24, AUC0-inf, λz, t1/2, % AUCext, CLss/F, Vzss/F, MRT, PTF, Rac(AUC0-24), Rac(Cmax) SR(AUC), Cmax/Dose, AUC0-last/Dose, AUC0-inf/Dose, AUC0-24/Dose. Safety

[5] = single oral 5 mg/kg (capsule), fasted male dogs, plasma, mean

[2H][C@]1(Cc2ccc(OCCc3ccc(CC)cn3)cc2)SC(=O)NC1=O [PXL065, deuterium-enriched (R)-pioglitazone]
AUC0-24, Total Pio ([1]; dog, in vivo, po, 5 mg/kg): 7000 ng·h/mL | AUC0-24, Total R-pio ([1]; dog, in vivo, po, 5 mg/kg): 5770 ng·h/mL | AUC0-24, Total S-pio ([1]; dog, in vivo, po, 5 mg/kg): 1240 ng·h/mL | Cmax, Total Pio ([1]; dog, in vivo, po, 5 mg/kg): 1520 ng/mL | Cmax, Total R-pio ([1]; dog, in vivo, po, 5 mg/kg): 1330 ng/mL | Cmax, Total S-pio ([1]; dog, in vivo, po, 5 mg/kg): 227 ng/mL | Tmax, Total Pio ([1]; dog, in vivo, po, 5 mg/kg): 1 h | Tmax, Total R-pio ([1]; dog, in vivo, po, 5 mg/kg): 1 h | Tmax, Total S-pio ([1]; dog, in vivo, po, 5 mg/kg): 2 h | T1/2z, Total Pio [1, 5]: 1.46^a h | T1/2z, Total R-pio [1, 5]: 1.43^a h | T1/2z, Total S-pio [1, 5]: 1.62^a h | AUC0-24, ss dose normalized, total pioglitazone ([2]; female dogs (F)): 1762 ng·h/mL | AUC0-24,ss, total pioglitazone ([2]; female dogs (F)): 8710 ng·h/mL | AUC0-24, ss dose normalized, total pioglitazone ([2]; male dogs (M)): 2180 ng·h/mL | AUC0-24,ss, total pioglitazone ([2]; male dogs (M)): 10900 ng·h/mL | AUCinf dose normalized, total pioglitazone [3]: 618 ng·h/mL/mg | AUCinf, total pioglitazone ([3]; fasted healthy subjects): 13896 ng·h/mL | AUC0-24,ss, total pioglitazone ([4]; 15 mg tablet once daily, repeated doses): 6505 ng·h/mL | AUC0-24, ss dose normalized, total pioglitazone ([4]; 15 mg tablet): 434 ng·h/mL/mg | AUC0-24,ss, total pioglitazone ([4]; 30 mg tablet once daily, repeated doses): 13802 ng·h/mL | AUC0-24, ss dose normalized, total pioglitazone ([4]; 30 mg tablet): 460 ng·h/mL/mg | Increase of relative bioavailability compared to Actos ([4]; humans, repeated doses): 55%-65%
